In patent US12655145B2, “P2X3 modulators” (GlaxoSmithKline Intellectual Property (No. 3) Limited, priority 2020, dated 2026) one finds inhibition and IC50 data, which are given here for 24 compounds.

Structures are written as SMILES. Where only a bound is given, the exact number is not on record here.

The target in the first assay is T1, P2X3 (Homo sapiens, UniProt P56373).
T1 construct: expressed in transfected cells; host or cells: HEK293
T1 sequence (P56373 1-397): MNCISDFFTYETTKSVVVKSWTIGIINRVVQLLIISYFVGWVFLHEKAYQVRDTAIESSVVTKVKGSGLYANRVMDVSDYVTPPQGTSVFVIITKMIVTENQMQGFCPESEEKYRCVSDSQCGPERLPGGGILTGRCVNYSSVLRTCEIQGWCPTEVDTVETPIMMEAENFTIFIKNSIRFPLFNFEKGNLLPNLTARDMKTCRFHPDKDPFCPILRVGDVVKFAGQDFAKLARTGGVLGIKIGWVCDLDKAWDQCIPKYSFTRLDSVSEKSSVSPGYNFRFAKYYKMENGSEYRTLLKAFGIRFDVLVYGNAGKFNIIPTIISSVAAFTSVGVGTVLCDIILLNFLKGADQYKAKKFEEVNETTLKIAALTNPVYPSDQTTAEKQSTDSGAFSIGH
The experiment in a line: P2X3 Antagonist Assay (FLIPR calcium, Fluo-8, HEK293 cells transfected with human ion channel cDNAs, αβ-meATP stimulation). It counts as cell-based. To be noted: HEK293, @ 1 μM, antagonist mode, αβ-meATP 3 μM, read-out: P2X3 IC50 column, given as % @ 1 μM. The method, then: Example 59: P2X3 Antagonist Assay
HEK293 were transiently or stably transfected with human ion channel cDNAs as indicated in section 1. Stable transfectants were selected by coexpression with the antibiotic-resistance gene(s) incorporated into the expression plasmid(s). Selection pressure was maintained by including selection antibiotics in the culture medium. HEK293 cells were cultured in Dulbecco's Modified Eagle Medium/Nutrient Mixture F-12 (D-MEM/F-12) supplemented with 10% fetal bovine serum, 100 U/mL penicillin G sodium, 100 J·Lg/mL streptomycin sulfate and appropriate selection antibiotics.
The effect of each test article to act as an antagonist was evaluated. Each test article was evaluated at eight (8) concentrations (0.001, 0.003, 0.01, 0.03, 0.1, 0.3, 1 and 3 μM, n=3) with 4 replicates for each concentration. Experiments were performed with the FLIPR calcium sensitive dye kit (Fluo-8 dye, AAT, Bioquest) according to the manufacturer's instructions. • Dye-loading: Growth media will be removed and add 20 μL of Mg^++-free HBPS containing Fluo-8 for 30 min at 37° C. • Preincubation (FLIPR step 1): Adding 5× (5 μL) test, vehicle, or control article solutions in Mg^+-free HBPS to each well for 20 minutes at room temperature, protected from light. • Stimulation (FLIPR step 2): After pre-incubation, cells will be stimulated with 6× (5 μL) αβ-meATP at final concentration of 3 μM prepared in Mg^++-free HBPS. • Non-Specific Calcium Influx (FLIPR step 3): 5 minutes after stimulation solution addition, non-specific calcium influx will be activated by adding 7×(5 μL) ionomycin at a final concentration of 5 μM. Fluorescence will be recorded continuously during FLIPR steps 2 and 3. • Positive Control Antagonist: PPADS (1 mM).
Data acquisition was performed via the FLIPRControl software that is supplied with the FLIPR System (MDS-AT) and data was analyzed using Microsoft Excel2003 (Microsoft Corp., Redmond, WA).
As to `CNC(=O)c1cc(F)c(-c2[nH]c3cc(C)ccc3c2C[C@H]2CN(C(=O)OC)CCO2)c(F)c1` [Compound A24, methyl (S)-2-((2-(2,6-difluoro-4-(methylcarbamoyl)phenyl)6-methyl-1H-indol-3-yl)methyl)morpholine-4-carboxylate], the inhibition at 1 µM worked out at 10%.
The same measure, in the same setting: with `CNC(=O)c1cc(F)c(-c2nc3cc(C)cnn3c2C[C@H]2CN(C(=O)OC)CCO2)c(F)c1` [Compound A27, methyl (S)-2-((2-(2,6-difluoro-4-(methylcarbamoyl)phenyl)-7-methylimidazo[1,2-b]pyridazin-3-yl)methyl)morpholine-4-carboxylate] the figure was 6%; with `CNC(=O)c1cc(F)c(-c2c(C[C@H]3CN(C(=O)OC)CCO3)nc3nc(C)ccn23)c(F)c1` [Compound A33, methyl (S)-2-((3-(2,6-difluoro-4-(methylcarbamoyl)phenyl)-7-methylimidazo[1,2-a]pyrimidin-2-yl)methyl)morpholine-4-carboxylate], 5%.

Still in this assay, the particulars now being: antagonist mode, αβ-meATP 3 μM.
As to `CNC(=O)c1cc(F)c(-c2nc3cc(C)ccn3c2C[C@H]2CN(C(=O)OC)CCO2)c(F)c1F` [Compound A6, methyl (S)-2-((7-methyl-2-(2,3,6-trifluoro-4-(methylcarbamoyl)-phenyl)imidazo[1,2-a]pyridin-3-yl)methyl)morpholine-4-carboxylate], the IC50 was < 0.1 µM.
The same measure, in the same setting: as for `CNC(=O)c1ccc(-c2nc3cc(Cl)ccn3c2C[C@H]2CN(C(=O)OC)CCO2)c(C)c1` [Compound A7, methyl (S)-2-((7-chloro-2-(2-methyl-4-(methylcarbamoyl)phenyl)-imidazo[1,2-a]pyridin-3-yl)methyl)morpholine-4-carboxylate], the figure is < 0.1 µM.
As to `CNC(=O)c1ccc(-c2nc3cc(C)ccn3c2C[C@H]2CN(C(=O)OC)CCO2)c(Cl)c1` [Compound A8, methyl (S)-2-((2-(2-chloro-4-(methylcarbamoyl)phenyl)-7-methyl-imidazo[1,2-a]pyridin-3-yl)methyl)morpholine-4-carboxylate], the IC50 is < 0.1 µM.
Consider `CNC(=O)c1ccc(-c2nc3cc(Cl)ccn3c2C[C@H]2CN(C(=O)OC)CCO2)c(Cl)c1` [Compound A9, methyl (S)-2-((2-(2-chloro-4-(methylcarbamoyl)phenyl)-7-chloro-imidazo[1,2-a]pyridin-3-yl)methyl)morpholine-4-carboxylate], for which the half-maximal inhibitory concentration (IC50) was < 0.1 µM.
On to `CNC(=O)c1ccc(-c2nc3cc(C)ccn3c2C[C@H]2CN(C(=O)OC)CCO2)c(F)c1` [Compound A10, methyl (S)-2-((2-(2-fluoro-4-(methylcarbamoyl)phenyl)-7-methylimidazo[1,2-a]pyridin-3-yl)methyl)morpholine-4-carboxylate], for which the IC50 was < 0.1 µM.
The same measure, in the same setting: with `CNC(=O)c1ccc(-c2nc3cc(Cl)ccn3c2C[C@H]2CN(C(=O)OC)CCO2)c(F)c1` [Compound A11, methyl (S)-2-((2-(2-fluoro-4-(methylcarbamoyl)phenyl)-7-chloroimidazo[1,2-a]pyridin-3-yl)methyl)morpholine-4-carboxylate] the figure was < 0.1 µM; with `CNC(=O)c1cc(C)c(-c2nc3cc(C)ccn3c2C[C@H]2CN(C(=O)OC)CCO2)cc1F` [Compound A12, methyl (S)-2-((2-(5-fluoro-2-methyl-4-(methylcarbamoyl)phenyl)-7-methylimidazo[1,2-a]pyridin-3-yl)methyl)morpholine-4-carboxylate], < 0.1 µM.
Same read-out and setting: with `CNC(=O)c1cc(C)c(-c2nc3cc(Cl)ccn3c2C[C@H]2CN(C(=O)OC)CCO2)cc1F` [Compound A13, methyl (S)-2-((7-chloro-2-(5-fluoro-2-methyl-4-(methylcarbamoyl)phenyl)imidazo[1,2-a]pyridin-3-yl)methyl)morpholine-4-carboxylate] the figure was < 0.1 µM; with `CNC(=O)c1cc(F)c(-c2nc3cc(C)ccn3c2CC2CCN(C(=O)OC)CC2)c(F)c1` [Compound A20, methyl 4-((2-(2,6-difluoro-4-(methylcarbamoyl)phenyl)-7-methylimidazo[1,2-a]pyridin-3-yl)methyl)piperidine-1-carboxylate], < 0.1 µM; with `CNC(=O)c1cc(F)c(-c2cc3cc(C)ccc3n2C[C@H]2CN(C(=O)OC)CCO2)c(F)c1` [Compound A23, methyl (S)-2-((2-(2,6-difluoro-4-(methylcarbamoyl)phenyl)-5-methyl-1H-indol-1-yl)methyl)morpholine-4-carboxylate], 0.1 to 1 µM.
The same measure, in the same setting: with `CNC(=O)c1cc(F)c(-c2cc3cc(C)cnc3n2C[C@H]2CN(C(=O)OC)CCO2)c(F)c1` [Compound A25, methyl (S)-2-((2-(2,6-difluoro-4-(methylcarbamoyl)phenyl)-5-methyl-1H-pyrrolo[2,3-b]pyridin-1-yl)methyl)morpholine-4-carboxylate] the figure was > 1 µM.
Take `CNC(=O)c1cc(F)c(-c2[nH]c3cc(C)cnc3c2C[C@H]2CN(C(=O)OC)CCO2)c(F)c1` [Compound A26, methyl (S)-2-((2-(2,6-difluoro-4-(methylcarbamoyl)phenyl)-6-methyl-1H-pyrrolo[3,2-b]pyridin-3-yl)methyl)morpholine-4-carboxylate]: the IC50 is > 1 µM.
Still for that read-out and setting: with `CNC(=O)c1cc(F)c(-c2nc3nc(C)ccn3c2C[C@H]2CN(C(=O)OC)CCO2)c(F)c1` [Compound A28, methyl (S)-2-((2-(2,6-difluoro-4-(methylcarbamoyl)phenyl)-7-methylimidazo[1,2-a]pyrimidin-3-yl)methyl)morpholine-4-carboxylate] the figure was < 0.1 µM.
Same read-out and setting: with `CNC(=O)c1cc(F)c(-c2nc3cc(C)ncn3c2C[C@H]2CN(C(=O)OC)CCO2)c(F)c1` [Compound A29, methyl (S)-2-((2-(2,6-difluoro-4-(methylcarbamoyl)phenyl)-7-methylimidazo[1,2-c]pyrimidin-3-yl)methyl)morpholine-4-carboxylate] the figure was < 0.1 µM; with `CNC(=O)c1cc(F)c(-c2nc3cc(C)ccn3c2C[C@H]2CN(C(=O)OC)CCO2)c(OC)c1F` [Compound A30, methyl (S)-2-((2-(3,6-difluoro-2-methoxy-4-(methylcarbamoyl)-phenyl)-7-methylimidazo[1,2-a]pyridin-3-yl)methyl)morpholine-4-carboxylate], < 0.1 µM.
On the same count and under the same terms, as for `CNC(=O)c1cc(F)c(-c2[nH]c3cccc(C)c3c2C[C@H]2CN(C(=O)OC)CCO2)c(F)c1` [Compound A31, methyl (S)-2-((2-(2,6-difluoro-4-(methylcarbamoyl)phenyl)-4-methyl-1H-indol-3-yl)methyl)morpholine-4-carboxylate], the figure is > 1 µM; as for `CNC(=O)c1ccc(-c2nc3cc(C(F)F)ccn3c2C[C@H]2CN(C(=O)OC)CCO2)c(Cl)c1` [Compound A32, methyl (S)-2-((2-(2-chloro-4-(methylcarbamoyl)phenyl)-7-(di-fluoromethyl)imidazo[1,2-a]pyridin-3-yl)methyl)morpholine-4-carboxylate], < 0.1 µM.
For `CNC(=O)c1cc(F)c(-c2nc3n(c2C[C@H]2CN(C(=O)OC)CCO2)CCC(C)C3)c(F)c1` (stereo partly drawn) [Compound A34, methyl (2S)-2-((2-(2,6-difluoro-4-(methylcarbamoyl)phenyl)-7-methyl-5,6,7,8-tetrahydroimidazo[1,2-a]pyridin-3-yl)methyl)morpholine-4-carboxylate], the IC50 was in the range of 0.1 to 1 µM.
Still for that read-out and setting: with `CNC(=O)c1cc(F)c(-c2c(C[C@H]3CN(C(=O)OC)CCO3)nc3cc(C)ncn23)c(F)c1` [Compound A37] the figure was 0.1 to 1 µM; with `CNC(=O)c1cc(F)c(-c2nc3cc(Cl)ccn3c2C[C@H]2CN(C(=O)OC)CCO2)c(OC)c1F` [Compound A40, methyl (S)-2-((7-chloro-2-(3,6-difluoro-2-methoxy-4-(methyl-carbamoyl)phenyl)imidazo[1,2-a]pyridin-3-yl)methyl)morpholine-4-carboxylate], < 0.1 µM; with `CNC(=O)c1cc(F)c(-c2nc3cc(C(F)F)ccn3c2C[C@H]2CN(C(=O)OC)CCO2)c(OC)c1F` [Compound A41, methyl (S)-2-((2-(3,6-difluoro-2-methoxy-4-(methylcarbamoyl)-phenyl)-7-(difluoromethyl)imidazo[1,2-a]pyridin-3-yl)methyl)morpholine-4-carboxylate], 0.1 to 1 µM.

The term IC50 denotes the concentration needed to halve the response being measured.
